# Reference: patent US20250257332A1, “TRUNCATED AND FUSION PROTEINS” (Monash University, priority 2021, published 2025)
# “Also recorded” adds a separate entry of the source.
# Tests used:
# [1] = system: C2C12 myoblasts; assay: C2C12 myoblast proliferation by EdU incorporation; type: cell-based, mouse; conditions: for effect on NAMPT-induced increase in myoblast proliferation: co-administration with NAMPT
# Method: FIG. 2. […] In vitro assay assessing the effects of exogenously introduced factors on C2C12 myoblast proliferation. Proliferation is identified by EdU incorporation. […] Mean+S.D. Two-way ANOVA with Tukey's multiple comparison test. […] Mean±SEM
# The mouse muscle cell line C2C12 (Yaffe, D. & Saxel, O. Serial passaging and differentiation of myogenic cells isolated from dystrophic mouse muscle. Nature 270, 725 (1977) were cultured in growth media (Dulbecco's Modified Eagle Medium (4.5 g/l D-Glucose, No L Glutamine, No Sodium Pyruvate (Gibco))+20% Fetal Bovine Solution-One Shot (Gibco)+1% Glut Max 100×(Gibco)). Cells were maintained at 37° C., 5% CO2. Cells at 70% confluence, passage 8 were extracted from T75 flasks with 0.025% Tryspin EDTA (Gibco), neutralised in growth media, spun at 180×g for 5 min to pellet cells. The cells were then resuspended in 10 ml of fresh growth media. 500 μl of cells were plated on a 8-well on cover glass II (Sarstedt) chamber slide at a density of 1×10^3 cells/ml. Cells were left 4 h at 37° C. to re-attach. For drug treatments, the media were supplemented with appropriate doses and cultured for 6 h.
# [2] = system: C2C12 murine myoblast cells; assay: C2C12 cell proliferation, CyQuant Proliferation Assay kit; type: cell-based, mouse; conditions: 20 nM, 48 hours, compared with full-length NAMPT
# Method: FIG. 7. Human NAMPT variants stimulate muscle progenitor proliferation. C2C12 mouse myoblasts were treated with 20 nM full length NAMPT (NAMPT) or NAMPT variants for (NAMPTxxx-xxx, where xxx are amino acid numbers) 48 hours. Quantification of cell proliferation was performed using CyQuant Proliferation Assay kit. […] Box and whiskers denote median with minimum and maximum values. n=4-5 independent experiments per protein. Statistical significance is indicated as exact p-value. […] Significance between conditions were analysed by one-way ANOVA with Tukey post-hoc test.
# Human NAMPTcif (hNAMPTcif) and truncated variants of hNAMPTcif were designed by progressively removing N-terminal regions containing positively charged amino acids. Four truncations were produced and numbered T1 to T4. […] Quantification of proliferation was performed using commercially-available CyQuant Proliferation Assay kit (Thermo Fisher Scientific) according to manufacturer's instructions and read using a Synergy H1 plate reader (BioTek). […]
# The heparin-binding sequence of placenta growth factor 2 (PIGF2) was fused to the N-terminus of NAMPTcif and produced using a bacterial expression system. […] Quantification of proliferation was performed using commercially-available CyQuant Proliferation Assay kit (Thermo Fisher Scientific) according to manufacturer's instructions and read using a Synergy H1 plate reader (BioTek). […]
# [3] = system: volumetric muscle loss injury of the rectus femoris muscle
# Method: Injury: male C57BL/6J mice aged between 10-12 weeks were anesthetised and shaved on the hind left leg. A unilateral incision measuring approximately 1 cm was made exposing the underlying fascia. The left hind limb was extended and exteriorised via the incision site by retracting the surrounding tissue. A 3×4 mm full thickness segment of the rectus femoris muscle was removed. Directly after, the injury site was filled with fibrin hydrogel with or without 200 ng or 500 ng of hrNAMPT (1) (hydrogel components; 40 μl, 8 mg/ml human fibrinogen (FIB3, Enzyme Research Laboratories), 4 U/ml bovine thrombin (T4648, Sigma), 5 mM CaCI2, 17 μg/ml of aprotinin (ab146286, Abcam)) which polymerized in the defect. Then, the soft tissue was closed with stitches.
# Histology: 10 days after treatment, animals were sacrificed and the wounds were harvested for histological analysis. The defect site and associated proximal and distal segment of the quadriceps muscle (including the rectus femoris, vastus medialis and vastus lateralis) were excised and embedded. Histological analysis was performed on serial paraffin sections (4 μm sections collected passing the central portion of the wound). Multiple sections were stained with Masson's Trichrome (to detect collagen deposition) and the extent of fibrosis (represented by a blue stain) was measured by histomorphometric analysis using ImageJ software (version 1.51 h, National Institutes of Health, USA). To maintain uniformity between samples, the length of the vastus medialis taken at multiple depths ranging from 1.0 mm-3.0 mm serves as a reference between tissue sections to determine the depth of sectioning. For fibrotic quantification, average muscle fibrosis area at each depth was scored and normalised with the area of the rectus femoris. Total area of muscle is determined by calculating the average area of rectus femoris at each depth.
# Immune cell profiling and PAX7+ cell quantification with flow cytometry: 4, 6 or 8 days after treatment with either 0.5 μg of hrNAMPT (1) delivered by fibrin hydrogel or control fibrin hydrogel only, mice were euthanised via CO2 asphyxiation. The defect site and associated proximal and distal segment of the quadricep muscles were isolated and placed into 890 μl of complete RPMI (with 10% FBS and 2 mM Glutamax, Life Technologies). The tissue was minced with surgical scissors and 100 μl of 10 mg/ml Collagenase II (Sigma-Aldrich) and 10 μl of 10 mg/ml DNAse I (Biolabs), while 100 μl of dispase II (10 mg/ml) was added into the digestion for PAX7 acquisition. The mixture was vortexed and incubated at 37° C. for 45 min. The collagenase was then inactivated with 500 μl ice-cold PBS, 5% FBS, 5 mM EDTA. The mixture was strained subsequently through 70 μm and 40 μm filters. The cell suspension was further diluted with 1 ml complete RPMI and centrifuged for 10 min at 300×g. The supernatant was discarded and the pellet was resuspended in 250 μl complete RPMI and aliquoted into wells of a 96-well U bottom plate for antibody staining. The cell solutions were centrifuged, supernatant discarded, and washed with PBS. The cell viability stain used was 100 μl of Zombie Aqua (Biolegend) Live-Dead dye diluted in PBS (1:400 dilution) and incubated for 30 min at 4° C. The cells were then blocked with FcX (anti-CD16/32 antibodies, Biolegend, 1 μg/ml) flow cytometry buffer (PBS, 5% FBS). The cells were kept for 20 min at 4° C., washed with flow cytometry buffer and centrifuged. […] For internal Foxp3 staining in the T cell panel, cells were fixed with 100 μl fixation/permeabilisation solution (42080, Biolegend) for 35 min. Then cells were washed and resuspended in 100 μl of flow cytometry buffer with 0.5% Saponin and 5 μg/ml anti-Foxp3 (clone 3G3, #35-5773-U100) for 45 min. Cells were then resuspended in flow cytometry buffer (100 μl) and acquired on the Fortessa x20 (Beckman Coulter). […] Cells were stained for 45 min on ice and washed as described above.
# [4] = molecular target: T1, TLR4 (Homo sapiens, UniProt O00206); assay: TLR4 signalling assay in HEK-Blue TLR4 reporter cells; type: cell-based; conditions: 19 nM; 24 hours; plus 5 ug/ml polymyxin B
# T1 construct: host or cells: HEK-Blue TLR4 reporter cell line
# T1 sequence (O00206 24-839): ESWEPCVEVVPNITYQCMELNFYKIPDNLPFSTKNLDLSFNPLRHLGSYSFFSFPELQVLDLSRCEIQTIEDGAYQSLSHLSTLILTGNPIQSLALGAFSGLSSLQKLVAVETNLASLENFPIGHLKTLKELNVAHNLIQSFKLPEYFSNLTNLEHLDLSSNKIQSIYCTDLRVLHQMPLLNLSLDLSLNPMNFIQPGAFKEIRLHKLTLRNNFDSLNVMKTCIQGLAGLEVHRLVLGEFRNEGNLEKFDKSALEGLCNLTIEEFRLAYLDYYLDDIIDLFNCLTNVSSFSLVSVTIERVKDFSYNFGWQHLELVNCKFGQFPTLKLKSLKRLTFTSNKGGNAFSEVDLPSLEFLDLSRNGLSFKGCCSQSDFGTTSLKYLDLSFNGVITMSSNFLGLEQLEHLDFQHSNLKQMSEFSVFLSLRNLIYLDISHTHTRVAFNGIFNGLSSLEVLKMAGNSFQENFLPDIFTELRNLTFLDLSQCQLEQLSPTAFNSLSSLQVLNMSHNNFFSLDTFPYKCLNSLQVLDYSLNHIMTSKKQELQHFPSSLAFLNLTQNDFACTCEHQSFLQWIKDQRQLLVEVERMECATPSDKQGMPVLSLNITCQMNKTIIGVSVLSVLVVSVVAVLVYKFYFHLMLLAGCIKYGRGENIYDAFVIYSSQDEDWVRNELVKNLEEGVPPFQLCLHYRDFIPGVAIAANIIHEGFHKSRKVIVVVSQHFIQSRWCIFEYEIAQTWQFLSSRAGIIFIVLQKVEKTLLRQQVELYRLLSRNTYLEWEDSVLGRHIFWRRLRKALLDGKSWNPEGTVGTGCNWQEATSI
# T1 sequence (Q9Y6Y9 17-160 partner limits assumed): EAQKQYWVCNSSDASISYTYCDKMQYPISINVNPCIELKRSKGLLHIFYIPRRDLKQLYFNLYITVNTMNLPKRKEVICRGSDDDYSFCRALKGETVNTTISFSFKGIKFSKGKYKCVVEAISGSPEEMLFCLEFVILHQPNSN
# Method: TLR4 receptor activation was assayed using the HEK-Blue TLR4 reporter cell line (InvivoGen). In this cell line, TLR4 and downstream NFκB signalling induces expression and secretion of alkaline phosphatase that can be quantified via colorimetric assay. HEK-Blue cells were treated for 24 hours with 19 nM of NAMPTcif or PIGF-NAMPTcif plus 5 ug/ml polymyxin B to ensure no TLR4 activation by any trace amounts of endotoxin. TLR4 activity was reported as the equivalent amount of activation by bacterial lipopolysaccharides (LPS), thus a standard curve was generated by serial dilutions of LPS from 0.01 to 20 ng/ml. Detection of alkaline phosphatase activity was performed using a QUANTI-Blue kit (InvivoGen) according to manufacturer's instructions and plates were read using a Synergy H1 plate reader (BioTek). Data were presented as equivalent LPS concentration in ng/ml. A one-way ANOVA with Dunnett's multiple comparisons test was performed to determine statistical significance.
# [5] = system: Human primary endothelial cells derived from umbilical vein; assay: Human primary endothelial cell proliferation, CyQuant; type: cell-based; conditions: 20 nM; 48 hours
# Method: FIG. 9. Human NAMPT variants stimulate human endothelial cell proliferation. Human primary endothelial cells derived from umbilical vein were treated with 20 nM full length NAMPT (NAMPT) or NAMPT variants (NAMPTxxx-xxx, where xxx are amino acid numbers) for 48 hours. Quantification of cell proliferation was performed using CyQuant Proliferation Assay kit. […] Treatment with 10% FBS was used as a positive control. Box and whiskers denote median with minimum and maximum values. n=6 independent experiments per protein. Statistical significance is indicated as p-value and determined by one-sample t-test.
# Similarly, the inventors next investigated the activity of full length NAMPT, NAMPT402-491 and NAMPT422-491 on human endothelial cell proliferation. Human endothelial cells were derived from umbilical vein and treated with 20 nM full length NAMPT (NAMPT) or NAMPT variants for 48 hours.
# [6] = fibrin hydrogel delivery, 10 days post treatment
# [7] = single dose 0.5 μg in fibrin hydrogel at the point of injury, 10 days post treatment, vs fibrin only
molecule,measurement,setting,value
N#CN=C(NCCCCCCOc1ccc(Cl)cc1)Nc1ccncc1 [GMX1778],effect on NAMPT-induced increase in myoblast proliferation,[1]; EdU incorporation,does not impact its effect on myoblast proliferation; also recorded: did not affect the increased myoblast proliferation
same,effect on basal level of C2C12 proliferation,"[1]; drug alone, EdU incorporation",no negative effect on the basal level of C2C12 proliferation
O=C(NCC(=O)N1CC[C@H](N[C@H]2CC[C@@](O)(c3ccc(-c4ncccn4)cn3)CC2)C1)c1cccc(C(F)(F)F)c1 [PF-4136309],effect on NAMPT-induced increase in myoblast proliferation,[1]; EdU incorporation,does not hinder NAMPT's stimulatory effect on myoblast proliferation
CCCCOCCOc1ccc(-c2ccc3c(c2)/C=C(/C(=O)Nc2ccc([S@@+]([O-])Cc4cncn4CCC)cc2)CCCN3CC(C)C)cc1 [cenicriviroc],effect on NAMPT-induced increase in myoblast proliferation,[1]; EdU incorporation,abolishes NAMPT's pro-proliferative response; also recorded: proliferative response was blocked
CCL2/MCP-1: CCR2 ligand,"myoblast proliferation (EdU incorporation), factor alone","[1]; exogenously added factor vs control, listed as mrCCL2",failed to increase proliferative rates beyond that of the control
"NAMPT422-471: Truncated hNAMPTcif, residues 422-471 of full length NAMPT, SEQ ID NO: 33 (His-tagged: SEQ ID NO: 34) (NKRSKKGRLSLHRTPAGNFVTLEEGKGDLEEYGQDLLHTVFKNGKVTKS)","cell proliferation, percentage increase vs PBS-treated control",[2],lower cellular proliferation of muscle progenitor cells compared to full-length NAMPT and the other NAMPT variants
"NAMPT436-491: Truncated hNAMPTcif, residues 436-491 of full length NAMPT, SEQ ID NO: 10 (His-tagged: SEQ ID NO: 11) (PAGNFVTLEEGKGDLEEYGQDLLHTVFKNGKVTKSYSFDEIRKNAQLNIELEAAHH)","cell proliferation, percentage increase vs PBS-treated control",[2],lower cellular proliferation of muscle progenitor cells compared to full-length NAMPT and the other NAMPT variants
Nicotinamide phosphoribosyltransferase [NAMPT],number of centrally nucleated de novo muscle fibres,"[3]; 0.5 μg in fibrin, 6 days post treatment, vs fibrin only",significant increase
same,restoration of muscle architecture,"[3]; delivered into the muscle defect via fibrin hydrogel, vs fibrin only control hydrogel",fully restore muscle architecture
same,fibrotic tissue (Masson's trichrome),[3]; [6],significant reduction in fibrotic tissue
same,regenerated muscle area (Masson's trichrome),[3]; [6],significantly increased the regenerated muscle area
same,decrease in average fibrotic area,[3]; [7],34.76±9.32%
same,increase in average muscle area,[3]; [7],3.276±0.4926 mm^2
same,TLR4 activation (equivalent LPS concentration),[4],activates TLR4
same,"endothelial cell proliferation, percentage increase vs PBS-treated control",[5],still stimulated endothelial cell proliferation above negative control
maraviroc,effect on NAMPT-induced increase in myoblast proliferation,[1]; EdU incorporation,abolishes NAMPT's pro-proliferative response; also recorded: proliferative response was blocked
